We go through eight compounds from PubChem BioAssay (NCI).

Structures are written as SMILES.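 Cultured in 96-well plates, cells were exposed to test compound for 48 hours across five concentrations. GI50 marks 50% less growth. TGI: concentration producing complete growth inhibition.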

Test in all cases: growth of human tumour cells (NCI), 48 h
The subject of assay [1] is CAKI-1 renal.
Assay [2] relates to DU-145 prostate.
The subject of assay [3] is HCT-116 colon.
For assay [4], the system named is HOP-92 NSCLC.
For assay [5], the system named is K-562 leukemia.
Assay [6] deals with MDA-MB-435.
Assay [7] concerns NCI-H522 lung.
The test system of assay [8] is OVCAR-5 ovarian.
Assay [9] has as its system OVCAR-8 ovarian.
Assay [10] has as its system RXF 393 renal.

With `COC(=O)c1sc(C(=O)OC)c2c1CSC2`, the TGI in [1] was over 100 µM; in assay [2], over 100 µM; in assay [3], over 100 µM; in assay [4], over 93.6 µM; in [5] it was over 100 µM; in [6], over 100 µM. Besides, the TGI was over 100 µM in assay [7], over 100 µM in [8], over 100 µM in [9] and over 97.1 µM in [10].

With `COc1ccc(/C=C/c2nc(NCCCN(C)C)c3ccccc3n2)cc1`, the GI50 was 16500 nM in assay [1]; 13.9 µM in assay [2]; 2300 nM in [3]; 2500 nM in [4]; 1990 nM in [5]; 1810 nM in assay [6]. The GI50 in assay [7] was 1830 nM; in assay [8] it was 5580 nM; in [9] it was 4750 nM; in assay [10] it was 3680 nM. Besides, the TGI in assay [1] is 33.7 µM; in assay [2], 27 µM; in [3], 5.88 µM; in [4], 8.15 µM; in assay [5], 4.4 µM; in assay [6], 3.65 µM. Besides, the TGI worked out at 3.66 µM in assay [7], 13.6 µM in assay [8], 18.7 µM in [9] and 12.1 µM in assay [10].

For the compound `CCCCCCCCCCN(CCCCCCCCCC)CC(=O)c1ccc2cc(Br)c3ccccc3c2c1`, the GI50 in [1] was 1700 nM; in assay [2] it was 3.69 µM; in assay [3] it was 1670 nM; in [4], 1880 nM; in [5], 2050 nM; in assay [6], 1760 nM. Moreover, the GI50 in [7] was 1560 nM; in assay [8], 2230 nM; in assay [9], 2090 nM; in [10], 1980 nM. Moreover, the TGI came to 4.43 µM in assay [1]; 10.3 µM in [2]; 3.17 µM in assay [3]; 5.12 µM in assay [4]; 4.84 µM in assay [5]; 3.42 µM in assay [6]. Moreover, the TGI in assay [7] was 3.27 µM; in [8], 5.6 µM; in assay [9], 4.31 µM; in [10], 3.5 µM.

Consider `N#Cc1c(-c2ccccc2)cc(-c2ccc(Nc3nc(Nc4ccc(Cl)cc4)nc(Nc4ccc(Cl)cc4)n3)cc2)nc1N`, for which the GI50 was 11800 nM in assay [1]; 4.67 µM in [2]; 1480 nM in assay [3]; 1060 nM in assay [4]; 2150 nM in [5]; 2800 nM in assay [6]. Further, the GI50 is 1390 nM in assay [7], 4130 nM in assay [8], 3940 nM in assay [9] and 1780 nM in assay [10]. Further, the TGI in assay [1] was determined as 30.4 µM; in assay [2], 20.4 µM; in assay [3], 3 µM; in assay [4] it was 3.86 µM; in assay [5], 7.59 µM; in assay [6], 14.1 µM. Further, the TGI was 3.1 µM in [7], 17.6 µM in [8], over 100 µM in assay [9] and 4.72 µM in assay [10].

Take `C#CC1(O)C(COP(=O)(O)OC2CC(n3cc(F)c(=O)[nH]c3=O)OC2CO)OC(n2ccc(N)nc2=O)C1O` (stereo not given): the GI50 in assay [1] was under 10 nM; in [2] it was under 0.011 µM; in assay [3] it was under 10 nM; in assay [4], under 24.2 nM; in [5] it was 10.1 nM; in assay [6], under 17.6 nM. Further, the GI50 in assay [7] was under 14 nM; in [8], 154 nM; in assay [9], under 10 nM; in [10], under 34.2 nM. For the same compound, the TGI is 0.0813 µM in [1]; 3.62 µM in assay [2]; over 100 µM in assay [3]; 3.75 µM in assay [4]; over 100 µM in [5]; 0.545 µM in assay [6]. Moreover, the TGI in assay [7] was 3.15 µM; in assay [8] it was over 33.5 µM; in [9], 14.5 µM; in [10] it was 2.37 µM.

Consider `O=C(c1ccc2ncc(-c3nc(NC4CC4)ncc3F)n2c1)N1CCOCC1`, for which the GI50 is 1330 nM in assay [1]; 2.68 µM in assay [2]; 1230 nM in assay [3]; 1930 nM in [4]; 3210 nM in assay [5]; 3110 nM in assay [6]. For the same compound, the GI50 in assay [7] was 1990 nM; in assay [8], 2160 nM; in [9], 2440 nM; in assay [10], 1070 nM. In addition, the TGI was 62.8 µM in assay [1]; over 100 µM in [2]; 10.4 µM in [3]; 6.86 µM in assay [4]; 29 µM in assay [5]; 14.4 µM in assay [6]. For the same compound, the TGI in assay [7] is 7.41 µM; in [8], 8.97 µM; in assay [9], over 100 µM; in assay [10], 3.02 µM.

Turning to `COc1cc2c3c(n(CCCNCCN)c(=O)c2cc1OC)-c1cc2c(cc1C3=O)OCO2`, the GI50 in assay [1] is 836 nM; in [2] it was 0.556 µM; in assay [3], 359 nM; in [4], 2310 nM; in assay [5] it was 601 nM; in assay [6] it was 1020 nM. The GI50 is 245 nM in [7], 1390 nM in [8], 259 nM in [9] and 5360 nM in assay [10]. Besides, the TGI in assay [1] was 5.87 µM; in assay [2], 3.41 µM; in [3], 0.986 µM; in [4] it was 15.6 µM; in assay [5], 3.77 µM; in [6], 4.56 µM. Further, the TGI in assay [7] is 2.29 µM; in assay [8] it was 10.5 µM; in assay [9], 6.73 µM; in [10], over 51.8 µM.

Take `OCCSCc1ccccc1`: the TGI in assay [1], in [2], in [3], in assay [4], in [5] and in assay [6] was over 100 µM in each case. Also, the TGI in [7], in [8], in assay [9] and in [10] was over 100 µM each time.
